Three compounds from patent publication US4952580A, “Pesticidal polyhaloalkene derivatives” (priority 1988, dated 1990) can be followed below.

Read-outs that look alike come from different tables or passages of the source.

The subject of series [1] is root-knot nematode. In words: Residual Root-Knot Nematicidal Activity. As to conditions: Table 3a, 5% dust, 5 ppm, read-out: Percent Control. The series is classed as in vivo, Meloidogyne incognita. The procedure, abridged: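 Soil received 5% dust formulation at 5 and 10 ppm test compound and was held in a greenhouse, then infested with root-knot nematode eggs and larvae at 1, 2 and 4 weeks post-treatment. Cucumber or tomato seedlings were planted and scored about two weeks after infestation for Knot Index and Percent Control.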

For series [2], the system named is root-knot nematode. In words: Systemic Activity (basipetal, foliar spray) against root-knot nematode. The series is classed as in vivo, Meloidogyne incognita. As to conditions: 336 h, read-out: Percent Control; for pest or weed control at 2000 ppm: Table 8, rate 2000 ppm. An outline of the steps: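 Tomato plants at 4-6 true leaves were foliar-sprayed with compound in water/acetone, soil covered, then kept 3 days at 25° C before soil inoculation with nematodes. After about two weeks, root galling versus untreated controls was scored as Knot Index and Percent Control.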

In series [3] the test system is root-knot nematode. In words: Soil Mobility against root-knot nematode. The series is classed as in vivo, Meloidogyne incognita. The following applies: 336 h, Table 7a, 5% dust, 5 ppm, read-out: Percent Control. The procedure, abridged:
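Soil mobility of the nematicidal test material was evaluated by placing treated, nematode-infested soil in 8 cm plastic pots stacked above two or more pots of untreated infested soil, each containing a 10 cm^3 sand layer and filter paper discs. Fifteen cm of water was dripped through, pots drained 16-18 hours, then were planted with cucumber or tomato seedlings and scored for Percent Control.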

Series [4] relates to root-knot nematode (Meloidogyne incognita). As to the kind of experiment: Initial Root-Knot Nematicidal Activity. The series is classed as in vivo. The following applies: 336 h, read-out: Percent Control; for pest or weed control at 0.078 ppm: Table 2, Application Rate 0.078 ppm; for pest or weed control at 0.156 ppm: Table 2, Application Rate 0.156 ppm; for pest or weed control at 2.5 ppm: Table 2, Application Rate 2.5 ppm; for pest or weed control at 0.312 ppm: Table 2, Application Rate 0.312 ppm. The procedure, abridged:
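Compound incorporated into Meloidogyne incognita-infested soil at 10 ppm to 0.078 ppm, then planted with tomato or cucumber seedlings. Root galling scored two weeks after planting as a knot index and converted to percent control, given as averages.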

The subject of another series is cyst nematode. As to the kind of experiment: Cyst Nematode Test. The following applies: Table 6; rate 5 ppm; read-out: Percent Control. The series is classed as in vivo. The protocol: Compounds of this invention were tested as follows for nematicidal and anthelmintic activity as dust formulations (initial and residual activity) and as acetone/water formulations (systemic activity). The formulations are described above.
The procedures was substantially the same as described in the stunt nematode test except soybean seedlings were used. "Percent Control" (Table 6 appended) is as defined in the stunt nematode test results.

For another series, the system named is stunt nematode. In words: Stunt Nematode Test. It counts as in vivo.
Series [5] has as its system cucumber or tomato seedling. In words: Phytotoxicity noted in Soil Mobility test. The series is classed as in vivo. Details: key: *: Some phytotoxicity. The following applies: Table 7a, 5% dust, 5 ppm. An excerpt:
The ability of nematicidal compounds of the invention to move through nematode-infested soil […] infested soil, and subsequently eluting the soil with 15 cm of water (equivalent to 15 cm of rainfall) into a series of two or more pots of untreated, but nematode-infested, soil. Specifically, the pots were 8 cm diameter plastic pots containing a 10 cm^3 layer of sand over a coarse grade filter paper disc. Sufficient soil was placed over the sand to fill the pots, and a second filter paper disc was placed over the soil. Each test compound-treated pot was nested over a series of two or more pots containing untreated, but nematode-infested soil, also containing sand filter paper discs as described for the treated soil pots. Fifteen cm of water was slowly dripped into the top pots and the pots were allowed to drain for 16-18 hours to remove excess water. The top filter of each pot was then removed and the pots were planted with a cucumber or tomato seedling. […] "Knot Index" and "Percent Control" are as defined in the initial root-knot nematode tests above.

In the next series the test system is lesion nematode. As to the kind of experiment: Lesion Nematode Test. It counts as in vivo. As to conditions: read-out: Percent Control. The procedure, abridged:
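Run as the stunt nematode test but on pea seedlings; compounds applied as dust formulations (initial and residual activity) or acetone/water formulations (systemic activity), with untreated samples as reference. Percent control derived by formula.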

The subject of another series is corn seedling. As to the kind of experiment: Phytotoxicity noted in Stunt Nematode Test. It counts as in vivo. Details: key: *: Some phytotoxicity. The following applies: Table 4a; rate 5 ppm. An excerpt: The procedure was substantially the same as in the initial root-knot nematode tests described above except that rates of application of formulated compound were 2.5 and 5 ppm in soil containing a corn seedling, with subsequent inoculation of the soil with combined larvae and adult stunt nematodes. The samples were evaulated approximately four weeks after infestation. The results (Tables 4 and 4a appended) indicate good control at the test application rates as compared with untreated samples where no control was observed. "Percent control" means the difference between average population counts between untreated and treated samples, divided by average population count of untreated sample, multiplied by 100.

The test system of another series is Caenorhabditis elegans. As to the kind of experiment: C. Elegans Nematode Screening Test and Evaluation (in-vitro). The following applies: Caenorhabditis elegans. An outline of the steps:
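Worms (10-15 per well) in buffer with E. coli food, ampicillin and mycostatin; compound added in DMSO, 2-3 replicates per rate. Incubated 5-6 days at 20° C. Population development scored against untreated wells, noting effects such as reduced egg hatch or molting disruption.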

[6] abbreviates: 168 h, inoculation 1 week post-treatment.
[7] abbreviates: 336 h, inoculation 2 weeks post-treatment.
Setting [8] is: 672 h, inoculation 4 weeks post-treatment.
Where [9] appears, read: Table 2, Application Rate 0.625 ppm.
[10] abbreviates: Table 2, Application Rate 1.25 ppm.
Where [11] appears, read: 672 h, Table 4a; rate 5 ppm; read-out: Percent Control.

As for `CCCc1nnc(SCCC(F)=C(F)F)o1` [Compound 41, 2-propyl-5-(3,4,4-trifluoro-3-butenylthio)-1,3,4-oxadiazole], the pest or weed control at 5 ppm turned out to be 97% in the series with root-knot nematode [1] (setting [6]); 63% in the series with root-knot nematode [1] (setting [7]); 6% in the series on root-knot nematode [1] (setting [8]); 8% in the series with root-knot nematode [3] (BOTTOM container); 95% with root-knot nematode [3] (MIDDLE container); 97% with root-knot nematode [3] (TOP container). In addition, the pest or weed control at 5 ppm with cyst nematode is 0%; in the series with stunt nematode (setting [11]) it was 29%. Further, the pest or weed control at 2000 ppm in the series on root-knot nematode [2] came out at 17%. Moreover, in series [4], the pest or weed control at 0.078 ppm stood at 31%. Also, in series [4], the pest or weed control at 0.156 ppm was 84%. In addition, the pest or weed control at 0.625 ppm in series [4] (setting [9]) was 98%. In addition, the pest or weed control at 1.25 ppm in series [4] (setting [10]) worked out at 100%. The pest or weed control at 2.5 ppm in [4] was 100%; in the series on lesion nematode (Table 5, rate 2.5 ppm), 64%. Besides, the Some phytotoxicity entry in series [5] (MIDDLE container) and in series [5] (TOP container) was “*” each time.

For the compound `FC(F)=C(F)CCSc1nnc(Cc2ccccc2)o1` [Compound 42, 2-phenylmethyl-5-(3,4,4-trifluoro-3-butenylthio)-1,3,4-oxadiazole], the pest or weed control at 5 ppm with root-knot nematode [1] (setting [6]) was found to be 99%; in the series on root-knot nematode [1] (setting [7]), 97%; in the series on root-knot nematode [1] (setting [8]), 0%; in the series with root-knot nematode [3] (BOTTOM container), 100%; in the series on root-knot nematode [3] (MIDDLE container) it was 100%; in the series with root-knot nematode [3] (TOP container), 100%. In addition, the results for the pest or weed control at 5 ppm in the series with cyst nematode, in the series with stunt nematode (setting [11]) and in the series on stunt nematode (672 h; Table 4a; rate 5 ppm; read-out: Percent Control) were 30%, 76% and 33%, respectively. In the series on corn seedling, the Some phytotoxicity entry is reported as “*”. Moreover, the pest or weed control at 0.078 ppm in series [4] amounted to 38%. Also, the pest or weed control at 0.156 ppm in series [4] was determined as 50%. Besides, in series [4], the pest or weed control at 0.312 ppm amounted to 86%. Moreover, in series [4] (setting [9]), the pest or weed control at 0.625 ppm was 98%. The pest or weed control at 1.25 ppm in series [4] (setting [10]) was found to be 98%. The pest or weed control at 2.5 ppm in series [4] is 100%; in the series on lesion nematode (Table 5, rate 2.5 ppm), 82%; in the series with lesion nematode, 73%.

With `FC(F)=C(F)CCSc1nnc(-c2cccc(Cl)c2)o1` [Compound 48, 2-(3-chlorophenyl)-5-(3,4,4-trifluoro-3-butenylthio)-1,3,4-oxadiazole], the pest or weed control at 5 ppm in the series on root-knot nematode [1] (setting [6]) was 97%; in the series with root-knot nematode [1] (setting [7]), 97%; in the series with root-knot nematode [1] (setting [8]) it was 69%; in the series on cyst nematode, 86%; with stunt nematode (setting [11]), 82%. Further, the pest or weed control at 2500 ppm in the series on root-knot nematode [2] (Table 8, rate 2500 ppm) amounted to 33%. Also, the pest or weed control at 2000 ppm in the series on root-knot nematode [2] (foliar) was 50%. For the same compound, the inhibition at 5 ppm in the series with Caenorhabditis elegans (Table 9 screen, 5 ppm, read-out: Percent Inhibition of Reproduction) came to 100%. Further, the mortality at 5 ppm in the series on Caenorhabditis elegans (Table 9 screen, 5 ppm, read-out: Percent Mortality) was 88%; with Caenorhabditis elegans (Table 10 evaluation, 5 ppm, read-out: Percent Mortality) it was 100%. Also, the inhibition at 1.25 ppm in the series with Caenorhabditis elegans (Table 10 evaluation, 1.25 ppm, read-out: Percent Inhibition of Reproduction) worked out at 17%. In the series with Caenorhabditis elegans (Table 10 evaluation, 1.25 ppm, read-out: Percent Mortality), the mortality at 1.25 ppm worked out at 0%. Also, the inhibition at 2.5 ppm in the series with Caenorhabditis elegans (Table 10 evaluation, 2.5 ppm, read-out: Percent Inhibition of Reproduction) is 25%. The mortality at 2.5 ppm in the series on Caenorhabditis elegans (Table 10 evaluation, 2.5 ppm, read-out: Percent Mortality) amounted to 0%. In addition, the pest or weed control at 0.078 ppm in series [4] was 6%. Besides, the pest or weed control at 0.156 ppm in series [4] stood at 38%. Besides, the pest or weed control at 0.312 ppm in [4] turned out to be 64%. In addition, the pest or weed control at 0.625 ppm was 78% in series [4] (setting [9]) and 87% in series [4]. Besides, the pest or weed control at 2.5 ppm in series [4] came to 98%; in the series on lesion nematode (Table 5, rate 2.5 ppm), 85%. In addition, the pest or weed control at 1.25 ppm in series [4] was 95%. Also, the Some phytotoxicity entry in [5] (TOP container) is given as “*”.
